In one data set the target is xanthine oxidase (Homo sapiens, UniProt P47989). As to the kind of experiment: In vitro inhibition of xanthine oxidase. Type of data set: biochemical.
Data set [1] addresses T1, human group IIA (hG-IIA) sPLA2 (Homo sapiens, UniProt P14555).
T1 sequence (P14555 21-144): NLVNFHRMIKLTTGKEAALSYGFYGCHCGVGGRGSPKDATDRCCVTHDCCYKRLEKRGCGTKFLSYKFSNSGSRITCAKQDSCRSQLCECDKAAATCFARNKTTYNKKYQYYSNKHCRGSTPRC
As to the kind of experiment: In vitro antiphospholipase activity. It counts as biochemical.

Data set [2] has as its target T2, human group X (hG-X) sPLA2 (Homo sapiens, UniProt O15496).
T2 sequence (O15496 43-165): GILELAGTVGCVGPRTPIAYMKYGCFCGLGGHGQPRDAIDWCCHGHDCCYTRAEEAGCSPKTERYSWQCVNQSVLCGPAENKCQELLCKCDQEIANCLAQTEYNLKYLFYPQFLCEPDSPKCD
As to the kind of experiment: In vitro antiphospholipase activity. The following applies: 20 min preincubation, lecithin substrate, pH 7.6; for IC50: read-out: mean IC50 against hG-X (converted). It counts as biochemical.

Data set [3] concerns the target T3, human group V (hG-V) sPLA2 (Homo sapiens, UniProt P39877).
T3 sequence (P39877 21-138): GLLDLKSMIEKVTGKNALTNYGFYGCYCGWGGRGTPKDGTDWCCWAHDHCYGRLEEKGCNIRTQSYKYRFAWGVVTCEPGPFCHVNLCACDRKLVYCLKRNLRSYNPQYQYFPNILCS
As to the kind of experiment: In vitro antiphospholipase activity. It counts as biochemical. Particulars: 20 min preincubation, lecithin substrate, pH 7.6; for IC50: read-out: mean IC50 against hG-V (converted).

The target of data set [4] is Apis mellifera bee venom (AmPLA2) (Apis mellifera, UniProt P00630). As to the kind of experiment: biochemical.
The target of the next data set is thrombin (Homo sapiens, UniProt P00734). As to the kind of experiment: In vitro antiprotease activity. Particulars: 15 min preincubation; read-out: mean IC50 against Thrombin (converted). Type of data set: biochemical. The method, then:
(§1) The inhibitory effects of 21 3H-quinazolin-4-one derivatives on several available therapeutically important proteases such as cathepsin-B, collagenase, elastase, thrombin, and trypsin were investigated. […] The protease inhibitory activity was expressed as inhibition percentage, which was determined by comparison with a control experiment. The results were expressed as IC50 values that were determined from the standard curve. A protease inhibitor cocktail (Sigma) was used as the positive control.

A further data set deals with T4, trypsin (Bos taurus, UniProt P00760).
T4 construct: gene PRSS1
T4 sequence (P00760 24-246): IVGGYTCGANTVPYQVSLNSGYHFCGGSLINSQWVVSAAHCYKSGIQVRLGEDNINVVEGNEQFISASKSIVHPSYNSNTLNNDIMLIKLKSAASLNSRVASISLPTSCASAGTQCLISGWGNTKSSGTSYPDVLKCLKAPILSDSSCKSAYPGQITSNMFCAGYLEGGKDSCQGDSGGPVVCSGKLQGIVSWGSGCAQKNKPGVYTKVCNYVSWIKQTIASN
As to the kind of experiment: In vitro antiprotease activity. Type of data set: biochemical. Particulars: 15 min preincubation; read-out: mean IC50 against Trypsin (converted). The method, then:
as §1

A further data set concerns the target collagenase. As to the kind of experiment: In vitro antiprotease activity. The following applies: 15 min preincubation. Type of data set: biochemical. The method, then:
as §1

The next data set has as its target elastase. As to the kind of experiment: In vitro antiprotease activity. Type of data set: biochemical. The following applies: 15 min preincubation. The method, then:
as §1

The target in a further data set is cathepsin-B (Homo sapiens, UniProt P07858). As to the kind of experiment: In vitro antiprotease activity. Type of data set: biochemical. The following applies: 15 min preincubation; read-out: mean IC50 against Cathepsin-B (converted). The method, then: as §1
Data set [5] concerns the target Naja mossambica mossambica sPLA2 (NmPLA2). As to the kind of experiment: In vitro antiphospholipase activity. The following applies: 20 min preincubation, lecithin substrate, pH 7.6. It counts as biochemical.

As a reminder, the IC50 is the concentration at which inhibition is half-maximal. One may read the melting point as the temperature, or range, at which the solid turns liquid.

Apis mellifera bee venom (AmPLA2), sequence (P00630 34-167 limits assumed): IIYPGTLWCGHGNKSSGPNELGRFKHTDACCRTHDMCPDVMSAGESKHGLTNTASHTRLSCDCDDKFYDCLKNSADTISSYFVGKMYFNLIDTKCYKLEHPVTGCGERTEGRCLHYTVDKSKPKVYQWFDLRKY
xanthine oxidase, sequence (P47989 whole entry, species assumed): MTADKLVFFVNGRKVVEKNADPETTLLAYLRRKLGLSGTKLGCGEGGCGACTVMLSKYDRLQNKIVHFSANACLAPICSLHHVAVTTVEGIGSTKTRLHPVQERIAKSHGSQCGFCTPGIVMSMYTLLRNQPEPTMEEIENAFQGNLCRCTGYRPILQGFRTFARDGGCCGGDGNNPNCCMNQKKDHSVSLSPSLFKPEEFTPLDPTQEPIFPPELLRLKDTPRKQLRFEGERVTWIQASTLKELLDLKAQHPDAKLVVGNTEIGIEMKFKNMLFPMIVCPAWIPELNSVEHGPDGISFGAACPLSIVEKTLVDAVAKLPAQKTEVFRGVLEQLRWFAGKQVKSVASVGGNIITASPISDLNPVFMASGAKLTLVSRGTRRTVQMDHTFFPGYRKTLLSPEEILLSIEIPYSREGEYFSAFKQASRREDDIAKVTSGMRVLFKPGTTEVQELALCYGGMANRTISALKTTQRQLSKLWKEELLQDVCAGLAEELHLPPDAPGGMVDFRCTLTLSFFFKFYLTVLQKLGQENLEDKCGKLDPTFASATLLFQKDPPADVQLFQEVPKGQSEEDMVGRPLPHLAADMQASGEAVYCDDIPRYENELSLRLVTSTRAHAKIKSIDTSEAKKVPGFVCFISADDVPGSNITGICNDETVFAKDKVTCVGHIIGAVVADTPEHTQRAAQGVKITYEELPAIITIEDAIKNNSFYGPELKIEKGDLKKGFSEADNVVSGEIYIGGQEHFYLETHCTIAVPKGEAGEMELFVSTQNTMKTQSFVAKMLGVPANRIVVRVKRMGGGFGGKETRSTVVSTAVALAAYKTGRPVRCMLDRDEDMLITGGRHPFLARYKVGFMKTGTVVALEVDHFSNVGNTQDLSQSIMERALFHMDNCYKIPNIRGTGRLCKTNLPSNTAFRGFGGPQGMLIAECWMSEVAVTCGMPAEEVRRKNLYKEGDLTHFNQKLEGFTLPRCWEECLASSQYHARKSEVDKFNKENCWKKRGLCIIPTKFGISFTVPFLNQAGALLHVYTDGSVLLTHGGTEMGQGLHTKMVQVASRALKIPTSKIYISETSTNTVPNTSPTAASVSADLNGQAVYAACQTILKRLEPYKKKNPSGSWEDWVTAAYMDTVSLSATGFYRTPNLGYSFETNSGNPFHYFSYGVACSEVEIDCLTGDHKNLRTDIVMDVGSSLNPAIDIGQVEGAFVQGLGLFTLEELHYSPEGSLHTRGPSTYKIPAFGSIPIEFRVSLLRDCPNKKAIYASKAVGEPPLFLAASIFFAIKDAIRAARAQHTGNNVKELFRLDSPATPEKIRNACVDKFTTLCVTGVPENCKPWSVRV
Protocol for xanthine oxidase: The xanthine oxidase inhibitory activities of the examined chemical compounds were determined by following the formation of uric acid from xanthine according to the reported method by Bondet and co-workers[46]. […] The results were expressed as IC50 determined from the curve.

The compound `Cc1nc2ccccc2c(=O)n1/N=C/c1ccc(C#N)cc1` [Compound 8g, (E)-4-[(2-Methyl-4-oxo-4H-quinazolin-3-ylimino)-methyl]-benzonitrile] gave a melting point of 222 to 224 °C. The compound also gave a half-maximal inhibitory concentration (IC50) at xanthine oxidase of 257 µM. This compound also had an IC50 in data set [1] of 95.4 µM. The IC50 in [2] was 79.8 µM. For the same compound, the concentration for half-maximal inhibition (IC50) in [3] is 117 µM. In addition, in data set [4], the IC50 was 46.8 µM. Also, the half-maximal inhibitory concentration (IC50) on thrombin was 48.6 µM. Besides, the IC50 on trypsin is 46.8 µM. Further, the “mean IC50 against Collagenase” value on collagenase is 17.25 ± 1.77 µg/mL. Besides, the “mean IC50 against Elastase” value at elastase worked out at 11.00 ± 0.41 µg/mL. In addition, the IC50 at cathepsin-B is 25.1 µM. For the same compound, the “mean IC50 against NmPLA2” value in data set [5] came out at 12.75 ± 1.06 µg/mL.
The compound `COc1cccc(/C=N/n2c(C)nc3ccccc3c2=O)c1[N+](=O)[O-]` [Compound 8e, (E)-3-[(3-Methoxy-2-nitro-benzylidene)-amino]-2-methyl-3H-quinazolin-4-one] had a melting point of 178 to 180 °C. In addition, half-maximal inhibition on xanthine oxidase (IC50) was put at 102 µM. In data set [1], this compound had an IC50 of 49.1 µM. In addition, in data set [2], the concentration for half-maximal inhibition (IC50) was 34.7 µM. Further, in [3], the concentration for half-maximal inhibition (IC50) is 70.2 µM. The compound further gave an IC50 in data set [4] of 22.5 µM. In addition, on thrombin, the IC50 was 4.43 µM. The IC50 on trypsin was 2.51 µM. Besides, at collagenase, the “mean IC50 against Collagenase” value worked out at 15.50 ± 2.12 µg/mL. The “mean IC50 against Elastase” value on elastase turned out to be 1.25 ± 0.05 µg/mL. The concentration for half-maximal inhibition (IC50) on cathepsin-B is 6.95 µM. In [5], the “mean IC50 against NmPLA2” value worked out at 7.75 ± 0.35 µg/mL.
On to `Cc1cccc(NC(=O)CSc2nc3ccccc3c(=O)n2-c2ccccc2)c1C` [Compound 15e], for which the 50% inhibitory concentration (IC50) was 98.7 µM against xanthine oxidase; 34.9 µM in data set [1]; 17.4 µM in [2]; 32.2 µM in data set [3]; 21.1 µM in data set [4]; 57.8 µM at thrombin. Moreover, the half-maximal inhibitory concentration (IC50) on trypsin was 81.8 µM; on cathepsin-B it was 3.85 µM. Moreover, the “mean IC50 against Collagenase” value at collagenase is 4.50 ± 0.71 µg/mL. The “mean IC50 against Elastase” value at elastase came out at 31.50 ± 2.12 µg/mL. Besides, in data set [5], the “mean IC50 against NmPLA2” value stood at 11.00 ± 1.41 µg/mL.
As to `Cc1nc2ccc(Br)cc2c(=O)n1/N=C/c1ccc2ccccc2c1` [Compound 8b, (E)-6-Bromo-2-methyl-3-[(naphthalen-2-ylmethylene)-amino]-3H-quinazolin-4-one], the IC50 on xanthine oxidase was 25.5 µM; in [1], 42.3 µM; in data set [2], 33.1 µM; in data set [3] it was 54.8 µM; in data set [4], 18.5 µM; on thrombin, 42.1 µM. Also, the IC50 is 65 µM at trypsin and 54.8 µM at cathepsin-B. Moreover, on collagenase, the “mean IC50 against Collagenase” value turned out to be 4.25 ± 1.06 µg/mL. Besides, the “mean IC50 against Elastase” value on elastase is 21.50 ± 2.12 µg/mL. Besides, the “mean IC50 against NmPLA2” value in [5] stood at 16.25 ± 1.06 µg/mL.
Turning to `Cc1nc2ccccc2c(=O)n1/N=C/c1ccc(-c2ccccc2)cc1` [Compound 8i], the IC50 at xanthine oxidase is 25 µM; in data set [1], 45.4 µM; in [2] it was 50.1 µM; in data set [3], 67.8 µM; in [4] it was 27.7 µM; on thrombin, 51.6 µM. The IC50 on trypsin is 36.8 µM; on cathepsin-B, 10.3 µM. Also, the “mean IC50 against Collagenase” value at collagenase is 15.25 ± 1.06 µg/mL. Further, the “mean IC50 against Elastase” value at elastase was 13.50 ± 2.12 µg/mL. In addition, in data set [5], the “mean IC50 against NmPLA2” value stood at 11.00 ± 1.41 µg/mL.
Regarding `CC1(C)CC[C@]2(C(=O)O)CC[C@]3(C)C(=CC[C@@H]4[C@@]5(C)CC[C@H](O)C(C)(C)[C@@H]5CC[C@]43C)[C@@H]2C1` [Oleanolic acid, reference compound], in [2], the “mean IC50 against hG-X” value is 7.55 ± 0.64 µg/mL. The “mean IC50 against hG-V” value in data set [3] came out at 7.50 ± 0.71 µg/mL. Besides, in [4], the IC50 was 9.2 µM. Also, the “mean IC50 against NmPLA2” value in [5] turned out to be 4.90 ± 0.42 µg/mL.

For the origin of these results see PMC6407576, “Synthesis and evaluation of anticancer, antiphospholipases, antiproteases, and antimetabolic syndrome activities of some 3H-quinazolin-4-one derivatives” (Journal of Enzyme Inhibition and Medicinal Chemistry, 2019).
